Results on one compound are retold here after PMC12118597 (Science Advances, 2025).

For test [1], the target named is T1, SARS-CoV-2 NSP3 macrodomain (Mac1) (Severe acute respiratory syndrome coronavirus 2, UniProt P0DTD1). Nature of the test: biochemical. As to conditions: SARS CoV-2 macrodomain HTRF assay. The format is binding. On the technique in general: TR-FRET usually uses a lanthanide donor and a delayed reading to cut background.
Test [2] has as its target T1, SARS-CoV-2 NSP3 macrodomain (Mac1). The class given is binding. As to conditions: stereoisomer(s)/conformations of the soaked ligand modeled in the Mac1 crystal structure.

Structures are written as SMILES.

Take `OC1CCC(O)(CNc2ncnc3[nH]ccc23)CC1` (stereo not shown) [AVI-6220]: in test [1], the Ki came to 240 µM and the “Ligand efficiency (binding enery per heavy atom)” value is given as 0.26. In addition, in test [1] (dose-response, read-out: IC50), the IC50 was 260 µM. Also, in test [2], the Isomers modeled entry is listed as “rr,rr”.

One may read the Ki as the equilibrium dissociation constant of an inhibitor or competing ligand from its target. Broadly, the IC50 is the concentration that gives 50% inhibition.
